{"source": "patent US20260240959A1", "about": "“METHODS FOR IN VIVO EDITING OF KLKB1” (INTELLIA THERAPEUTICS, INC., priority 2022, published 2026)", "key": {"[1]": {"conditions": "cited from earlier work"}, "[2]": {"assay": "Half-lives of HAE prophylactic products (from product sources)", "conditions": "for half-life: human"}, "[3]": {"assay": "Plasma pharmacokinetics of LP01 (LC-MS/MS) in HAE patients", "assay_type": "in vivo, human", "method": "Blood samples were collected to assess plasma concentration time profiles pre-infusion, during the infusion period, and at the end of the infusion period. Post infusion samples were collected at predefined time points as indicated in the graph (FIG. 37). LP01 (Lipid A) was quantified using liquid chromatography with tandem mass spectrometry (LC-MS/MS) methods. Plasma samples were evaluated using validated methods following regulatory guidelines."}}, "data": [{"molecule": "C#C[C@]1(O)CC[C@H]2[C@@H]3CCC4=Cc5oncc5C[C@]4(C)[C@H]3CC[C@@]21C", "note": "[Danocrine, Danazol, reference compound]", "values": [{"measurement": "Half Life (t1/2)", "setting": "[1]", "value": 9.7, "unit": "h"}, {"measurement": "half-life", "setting": "[2]", "value": 48.5, "unit": "h"}]}, {"molecule": "CCCCC/C=C\\C/C=C\\CCCCCCCC(=O)OCC(COC(=O)CCC(OCCCCCCCC)OCCCCCCCC)COC(=O)OCCCN(CC)CC", "note": "(centres unmarked) [LP01, (9Z,12Z)-3-((4,4-bis(octyloxy)butanoyl)oxy)-2-((((3-(diethylamino)propoxy)carbonyl)oxy)methyl)propyl octadeca-9,12-dienoate]", "values": [{"measurement": "half-life", "setting": "[3]; human, single dose IV infusion of NTLA-2002 25, 50 or 75 mg, range of cohort means, read-out: mean t1/2", "value": "16.8 to 21.3", "unit": "h"}, {"measurement": "decline below limit of quantification by", "setting": "[3]; single dose IV infusion of NTLA-2002", "value": "≤ 15", "unit": "days"}]}, {"molecule": "N#Cc1cccc([C@@H](NCC2CC2)c2ccc(F)c(NC(=O)c3cc(C(F)(F)F)nn3-c3cccc(CN)c3)c2)c1", "note": "[Orladeyo, Berotralstat, reference compound]", "values": [{"measurement": "Half Life (t1/2)", "setting": "[1]", "value": 93, "unit": "h"}, {"measurement": "half-life", "setting": "[2]", "value": 465, "unit": "h"}]}, {"molecule": "C[C@]12COC(=O)C[C@@H]1CC[C@@H]1[C@@H]2CC[C@@]2(C)[C@H]1CC[C@]2(C)O", "note": "[Oxandrin, Oxandrolone]", "values": [{"measurement": "half-life", "setting": "[2]", "value": 66.5, "unit": "h"}]}, {"molecule": "Cinryze: C1 Esterase Inhibitor [Human], HAE prophylactic product", "values": [{"measurement": "Half Life (t1/2)", "setting": "[1]", "value": "56 to 62", "unit": "h"}, {"measurement": "Estimated washout for (5 half-lives)", "setting": "[2]", "value": 310, "unit": "hours = ~13 days"}]}, {"molecule": "Haegarda: C1 Esterase Inhibitor [Human], HAE prophylactic product", "values": [{"measurement": "Half Life (t1/2)", "setting": "[1]", "value": 69, "unit": "h"}, {"measurement": "Estimated washout for (5 half-lives)", "setting": "[2]", "value": 345, "unit": "hours = ~14.5 days"}]}]}
